Measurements from US8633245B2, “PAI-1 inhibitor” (Institute of Medicinal Molecular Design, Inc., priority 2008, dated 2014).
Read-outs that look alike come from different tables or passages of the source.

Tests used:
[1] = molecular target: T1, recombinant human PAI-1 (Homo sapiens, UniProt P05121); experiment: Test Example 1: human PAI-1 inhibitory activity (tPA fluorogenic substrate, pH 7.5 Tris buffer); format: biochemical; conditions: Tris buffer
T1 construct: purchased Molecular Innovations, Inc
T1 sequence (P05121 24-402): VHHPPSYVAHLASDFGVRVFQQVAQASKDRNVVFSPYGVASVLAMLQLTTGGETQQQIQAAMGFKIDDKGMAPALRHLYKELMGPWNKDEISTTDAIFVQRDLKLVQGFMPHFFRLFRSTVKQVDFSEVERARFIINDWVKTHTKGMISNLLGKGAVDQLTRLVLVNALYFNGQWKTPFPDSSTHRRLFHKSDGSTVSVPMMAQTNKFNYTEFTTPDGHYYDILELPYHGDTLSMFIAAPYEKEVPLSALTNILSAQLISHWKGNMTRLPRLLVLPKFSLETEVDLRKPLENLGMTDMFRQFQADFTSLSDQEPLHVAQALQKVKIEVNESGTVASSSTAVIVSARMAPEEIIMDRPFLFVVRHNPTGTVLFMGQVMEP
Method: 50 mM Tris, 150 mM NaCl, 10 μg/ml BSA, 0.01% Tween80 (SIGMA-ALDRICH Corporation)

[2] = molecular target: T1, recombinant human PAI-1; experiment: Test Example 2: human PAI-1 inhibitory activity (tPA fluorogenic substrate, pH 7.4 HEPES buffer); format: biochemical
Method: 0.1 M HEPES, 0.1 M NaCl. 1 mM EDTA. 0.1% Polyethylene glycol 8,000 (Hampton Research Corporation),
2 mM Dimethyldecylphoshine oxide [Apo-10] (Fluka Corporation)

[3] = human PAI-1, compound concentration 0.1 μM
[4] = human PAI-1, compound concentration 0.3 μM
[5] = human PAI-1, compound concentration 1 μM
[6] = human PAI-1, compound concentration 3 μM
[7] = human PAI-1, calculated from the inhibition rates

Row | Structure (SMILES) | Inhibition Rate of PAI-1 Activity (%) ([1]; Compound Concentration 5 μM) | Inhibition Rate of PAI-1 Activity (%) ([1]; Compound Concentration 10 μM) | Inhibition Rate of PAI-1 Activity (%) ([1]; Compound Concentration 25 μM) | Inhibition Rate of PAI-1 Activity (%) [2, 3] | Inhibition Rate of PAI-1 Activity (%) [2, 4] | Inhibition Rate of PAI-1 Activity (%) [2, 5] | Inhibition Rate of PAI-1 Activity (%) [2, 6] | further results
1 | CC(C)(C)c1ccc(CN(C(=O)C(=O)O)c2ccc(-c3ccc(OC(F)(F)F)cc3)c(C(F)(F)F)c2)cc1 [Compound 166] | 44% | 79% | 84% |  |  |  |  | 
2 | Cc1ccc(COc2ccc(-c3ccc(OC(F)(F)F)cc3)cc2CCC(=O)O)cc1 [Compound 61] | 21% | 48% | 97% |  |  |  |  | 
3 | CC(C)c1ccc(Oc2ccc(/C=C/C(=O)O)c(Oc3ccc(C(C)C)cc3)c2)cc1 [Compound 72] | 32% | 72% | 98% |  |  |  |  | 
4 | Cc1ccc(N(Cc2ccc(C(C)(C)C)cc2)C(=O)C(=O)O)cc1OCc1ccc(OC(F)(F)F)cc1 [Compound 625] | 59% | 92% | 91% |  |  |  |  | 
5 | CC(C)(C)c1ccc(CN(C(=O)C(=O)O)c2ccc(-c3ccc(C(C)(C)C)cc3)cc2)cc1 [Compound 163] | 37% | 84% | >99% |  |  |  |  | 
6 | CC(C)(C)c1ccc(COc2ccc(-c3ccc(OC(F)(F)F)cc3)cc2NCC(=O)O)cc1 [Compound 539] | 14% | 34% | 65% |  |  |  |  | 
7 | CC(C)(C)c1ccc(-c2ccc(N(Cc3ccc(Cl)cc3)C(=O)C(=O)O)cc2)cc1 [Compound 204] | 58% | 85% | >99% |  |  |  |  | 
8 | Cc1ccc(-c2ccc(OC(F)(F)F)cc2)cc1N(Cc1ccc(C(C)(C)C)cc1)C(=O)C(=O)O [Compound 136] | 16% | 47% | 79% |  |  |  |  | 
9 | O=C(O)CCc1cc(-c2ccc(OC(F)(F)F)cc2)ccc1OCCCc1ccccc1 [Compound 101] | 42% | 73% | >99% |  |  |  |  | 
10 | CCC(Oc1ccc(-c2ccc(OC(F)(F)F)cc2)cc1Oc1ccc(C(C)(C)C)cc1)C(=O)O (centres unmarked) [Compound 114] | 64% | 87% | 95% |  |  |  |  | 
11 | O=C(O)CCc1cc(-c2ccc(OC(F)(F)F)cc2)ccc1OCc1ccccc1C(F)(F)F [Compound 21] |  | 11% | 70% |  |  |  |  | 
12 | CC(C)(C)c1ccc(-c2ccc(OCc3ccc(OC(F)(F)F)cc3)c(/C=C/C(=O)O)c2)cc1 [Compound 51] | 32% | 69% | 94% |  |  |  |  | 
13 | CC(C)(C)c1ccc(COc2ccc(-c3ccc(OC(F)(F)F)cc3)cc2OCCCC(=O)O)cc1 [Compound 109] | 24% | 50% | 96% |  |  |  |  | 
14 | CC(C)(Oc1ccc(-c2ccc(OC(F)(F)F)cc2)cc1Oc1ccc(C(C)(C)C)cc1)C(=O)O [Compound 110] | 37% | 51% | 83% |  |  |  |  | 
15 | CC(C)(C)c1ccc(Oc2ccc(-c3ccc(OC(F)(F)F)cc3)cc2C=CC(=O)O)cc1 [Compound 12] | 92% | 94% |  |  |  |  |  | 
16 | CC(C)(C)c1ccc(-c2ccc(Oc3ccc(-c4ccc(OC(F)(F)F)cc4)cc3CCC(=O)O)c(CCC(=O)O)c2)cc1 [Compound 541] | 77% | 93% | >99% |  |  |  |  | 
17 | CC(C)(C)c1ccc(CN(C(=O)C(=O)O)c2ccc(OCc3ccc(OC(F)(F)F)cc3)c(OCc3ccc(OC(F)(F)F)cc3)c2)cc1 [Compound 622] | 44% | 72% | 88% |  |  |  |  | 
18 | CC(C)(C)c1ccc(COc2ccc(Nc3ccc(OC(F)(F)F)cc3)cc2CCC(=O)O)cc1 [Compound 412] | 22% | 46% | 92% |  |  |  |  | 
19 | CC(C)(C)c1ccc(COc2ccc(-c3cccc(OC(F)(F)F)c3)cc2CCC(=O)O)cc1 [Compound 64] | 49% | 74% | 95% |  |  |  |  | 
20 | CC(C)(C)c1ccc(N(C(=O)C(=O)O)c2cccc(-c3ccc(OC(F)(F)F)cc3)c2)cc1 [Compound 158] | 26% | 61% | >99% |  |  |  |  | 

Row | Structure (SMILES) | Inhibition Rate of PAI-1 Activity (%) ([1]; Compound Concentration 5 μM) | Inhibition Rate of PAI-1 Activity (%) ([1]; Compound Concentration 10 μM) | Inhibition Rate of PAI-1 Activity (%) ([1]; Compound Concentration 25 μM) | Inhibition Rate of PAI-1 Activity (%) [2, 3] | Inhibition Rate of PAI-1 Activity (%) [2, 4] | Inhibition Rate of PAI-1 Activity (%) [2, 5] | Inhibition Rate of PAI-1 Activity (%) [2, 6] | further results
21 | CC(C)(C)c1ccc(-c2ccc(N(Cc3cccc(OC(F)(F)F)c3)C(=O)C(=O)O)cc2)cc1 [Compound 203] | 69% | 91% | 97% |  |  |  |  | 
22 | CC(C)(C)c1ccc(N(C(=O)C(=O)O)c2ccc(Oc3ccc(OC(F)(F)F)cc3)cc2)cc1 [Compound 165] | 27% | 64% | 96% |  |  |  |  | 
23 | CC(C)(C)c1ccc(COc2ccc(-c3ccccc3OC(F)(F)F)cc2/C=C/C(=O)O)cc1 [Compound 65] | 42% | 72% | 93% |  |  |  |  | 
24 | Cc1cc(-c2ccc(OC(F)(F)F)cc2)cc(/C=C/C(=O)O)c1OCc1ccc(C(C)(C)C)cc1 [Compound 83] | 27% | 46% | 56% |  |  |  |  | 
25 | O=C(O)CCc1ccc(-c2ccc(OC(F)(F)F)cc2)cc1Oc1ccc(C(F)(F)F)cc1 [Compound 474] |  |  |  | 2% | 11% | 43% | >99% | 
26 | CC(C)(Oc1c(Oc2ccc(C(C)(C)C)cc2)cccc1-c1ccc(OC(F)(F)F)cc1)C(=O)O [Compound 251] |  |  |  |  |  |  |  | IC50 [2, 7]: 1350 nM
27 | Cc1cc(C)cc(-c2ccc(CCC(=O)O)c(Oc3ccc(C(C)(C)C)cc3)c2)c1 [Compound 498] |  |  |  | 1% | 4% | 44% | >99% | 
28 | CC(C)(C)c1ccc(Oc2cc(-c3ccc4ccccc4c3)ccc2/C=C/C(=O)O)cc1 [Compound 469] |  |  |  | 4% | 22% | 96% | >99% | 
29 | CCCCCCC(Oc1cc(-c2ccc(OC(F)(F)F)cc2)ccc1Oc1ccc(C(F)(F)F)cc1)C(=O)O (centres unmarked) [Compound 327] |  |  |  |  |  |  |  | IC50 [2, 7]: 420 nM
30 | CCCCCOc1ccc(-c2ccc(OC(F)(F)F)cc2)cc1N(CCCCc1ccc(Cl)cc1)C(=O)C(=O)O [Compound 384] |  |  |  |  |  |  |  | IC50 [2]: 510 nM
31 | CC(C)c1ccc(-c2ccc(/C=C/C(=O)O)c(Oc3ccc(C(C)(C)C)cc3)c2)cc1 [Compound 518] |  |  |  | 14% | 54% | >99% | >99% | 
32 | CC(C)(C)c1cccc(Oc2ccc(-c3ccc(OC(F)(F)F)cc3)cc2CCC(=O)O)c1 [Compound 438] |  |  |  | 13% | 11% | 50% | >99% | 
33 | CC(C)(C)c1ccc(CN(C(=O)C(=O)O)c2ccc(N3CCN(c4ccc(OC(F)(F)F)cc4)CC3)cc2)cc1 [Compound 628] |  |  |  |  |  | 40% | >99% | Inhibition Rate of PAI-1 Activity (%) ([2]; human PAI-1, compound concentration 10 μM): >99%; Inhibition Rate of PAI-1 Activity (%) ([2]; human PAI-1, compound concentration 25 μM): 90%
34 | CC(C)(C)c1ccc(Oc2cc(-c3ccccc3OC(F)(F)F)ccc2/C=C/C(=O)O)cc1 [Compound 466] |  |  |  | 4% | 9% | 88% | >99% | 
35 | CC(C)(C)c1cccc(Oc2cc(-c3cccc(OC(F)(F)F)c3)ccc2CCC(=O)O)c1 [Compound 515] |  |  |  | 12% | 16% | 86% | >99% | 
36 | CCCCCCCOc1cc(N(CCCCc2ccccc2)C(=O)C(=O)O)ccc1-c1ccc(OC(F)(F)F)cc1 [Compound 650] |  |  |  | 16% | 40% | >99% | >99% | 
37 | O=C(O)/C=C/c1ccc(-c2ccc(OC(F)(F)F)cc2)cc1Sc1ccccc1 [Compound 528] |  |  |  | 8% | 12% | 51% | 97% | 
38 | CC(C)c1ccc(-c2ccc(OCC(=O)O)c(Oc3ccc(C(C)(C)C)cc3)c2)cc1 [Compound 441] |  |  |  | 9% | 29% | 89% | 98% | 
39 | O=C(O)C(=O)N(CCCCc1ccccc1)c1ccc(-c2ccc3ccccc3c2)cc1 [Compound 671] |  |  |  | 26% | 12% | 23% | 92% | 
40 | CC(C)(C)c1ccc(Oc2ccc(Oc3ccc(OC(F)(F)F)cc3)cc2OCC(=O)O)cc1 [Compound 537] |  |  |  | 0% | 26% | 92% | 97% | 
